Data as given in patent US20220400669A1, “COMPOUNDS AND METHODS FOR PROMOTING PLANT GROWTH” (King Abdullah University of Science and Technology, priority 2019, published 2022).
Entries after “also recorded” stand apart in the source; their conditions may differ.

Tests used:
Assay type in all cases: in vivo
Striga hermonthica seeds = assay: Striga hermonthica seed germination bioassay with root exudates of treated rice seedlings
Description: For SL analysis, one-week-old seedlings were transferred into 50 ml falcon tubes (two seedlings per tube), containing half-strength Hoagland nutrient solution with K2HPO4.2H2O (+Pi), and grown in the biochamber for one week. Rice seedlings were then subjected to phosphate deficiency (−Pi) for another one week. On the day of root exudates collection, rice seedlings were first treated with 5 μM Zaxinone, or MZ compounds for 6 h, and then root exudates and root tissues were collected from each tube for LC-MS/MS analysis and Striga bioassays. Striga hermonthica seed germination bioassays were conducted by following the procedure as described previously. About 50-100 sterilized Striga seeds were spread on a glass fiber filter paper disc. Then 12 discs with Striga seeds were put on a sterilized filter paper, moistened with 3 ml sterilized water in a 90 mm petri plate. The plates were sealed with parafilm and cover with aluminum foil. All the plates were kept at 30° C. for 10 days for pre-conditioning. On 11th day, six dry discs with pre-conditioned seeds were selected and put in a 90 mm petri-dish. A filter paper ring moistened with 0.9 ml sterile MilliQ water was placed in the plate. The root exudates collected from Zaxinone or MZ compounds treated rice seedlings was applied at 50 μl on each six disc. Sterile MilliQ water and standard SL analog GR24 (2.5 μM) were included as a negative and positive control, respectively. After application, Striga seeds were incubated in dark at 30° C. for 24 hours. Germination (seeds with radicle emerging through seed coat) was scored under a binocular microscope, and germination rate (%) was calculated.

[1] = test system: SL biosynthesis genes D27, CCD7, CCD8, CO; assay: qRT-PCR transcript analysis of SL biosynthesis genes in rice roots; conditions: 5 μM
Description: For transcript analysis, one-week-old seedlings were grown hydroponically in half-strength modified Hoagland nutrient solution with K2HPO4.2H2O (+Pi) and without K2HPO4.2H2O (+Pi) (−Pi) for 7 days. Seedlings were further treated with zaxinone or MZ compounds for 6 h, and tissues were collected.
Roots of rice seedling were ground and homogenized in liquid nitrogen, and total RNA was isolated using a Direct-zol RNA Miniprep Plus Kit following the manufacturer's instructions (ZYMO RESEARCH; USA). cDNA was synthesized from 1 μg of total RNA using iScript cDNA Synthesis Kit (BIO-RAD Laboratories, Inc, 2000 Alfred Nobel Drive, Hercules, Calif.; USA) according to the instructions in the user manual. The gene expression level was detected by real-time quantitative RT-PCR (qRT-PCR) which was performed using SYBR Green Master Mix (Applied Biosystems; www.lifetechnologies.com) in a CFX384 Touch™ Real-Time PCR Detection System (BIO-RAD Laboratories, Inc, 2000 Alfred Nobel Drive, Hercules, Calif.; USA). The gene expression level was calculated by normalization of a housekeeping gene in rice, Ubiquitin (OsUBQ) (Table 1). The relative gene expression level was calculated according to 2-^ΔΔCT method.

[2] = test system: zas mutant and Nipponbare wild-type rice seedlings; assay: Hydroponic rice growth, zas mutant rescue and tillering; conditions: hydroponic system, 2.5 μM
Description: For rescuing zas mutant phenotypes and investigating the effect of the compounds MZ3 and MZ5 on different genotypes, one week-old seedlings were grown hydroponically in half-strength modified Hoagland nutrient solution containing K2HPO4.2H2O (+Pi), 2.5 μM and 5 μM zaxinone or compounds (MZ2-MZ5) (dissolved in 0.1% acetone) or the corresponding volume of the solvent (control) for 21 days (i.e. 3 weeks). The solution was changed every other day, adding the chemical at each renewal.

wild-type rice plants = assay: Rice phenotypes in soil (rhizotron system); conditions: 5 μM
Description: For testing MZ3 and MZ5 on rice phenotypes in the rhizotron system (48 cm×24 cm×5 cm), three-day-old seedlings were grown in soil with half-strength modified Hoagland nutrient solution containing 0.4 mM K2HPO4.2H2O (+Pi) and 5 μM zaxinone for two weeks. The solution was changed every other day, adding the chemical at each renewal. To increase the compounds stability, 1 μl/ml emulsifier (cyclohexanone+Atlas […] kindly provided by a person […] of CRODA, Gouda; The Netherlands) was added into Hoagland nutrient solution. Root surface area was analyzed with the ImageJ software.

[3] = test system: tomato plant (c.v. Money maker); assay: Foliar application on tomato plants; conditions: 5 μM foliar application
Description: Tomato seeds (c.v. Money maker) were sterilized and pre-germinated on moistened filter paper at 22° C. for 4-5 days, transferred to light for 3-4 days or direct sowed of seeds from fresh tomatoes in soils at 25° C. Most uniform seedlings (10 days old) were selected and transferred to pots. After one week of the transfer, 5 μM compounds were used for foliar application. Each compound was applied three times in a week up to four weeks: 20 mL per pot (spray as runoff) in first 3 weeks, and 40 mL per pot in last 4th week. The plants were grown under normal growth condition (27° C., 70% RH).

Striga hermonthica = Striga hermonthica infection of rice in pots; conditions: 5 μM, rice cv IAC-165 in pots with Striga infested soil (FIG. 13)
Description: Pots experiment was conducted and slightly adapted from the protocol as described previously About 20 mg (ca 8000) Striga seeds were thoroughly mixed in 1.5 L sand and soil mixture (1:1) and added in 3 L perforated plastic pot containing 0.5 L clean soil in the bottom. The pots were kept in greenhouse-controlled conditions at 35° C. under moisture to preconditioned Striga seeds for 10 days. On 11th day, one week old five rice seedlings (cv IAC165) were planted in each pot. After three days of rice planting, each pot was first irrigated with 250 ml phosphorus deficient Hoaglands nutrient solution and after four hours of irrigation 25 ml formulated MZ3, MZ5 and Zaxinone (100 μM) were sprayed. Next day, each pot was again supplied with 250 ml nutrient solution to make the final concentration of each compound to 5 μM and to move the compound to rice seedlings. Pots with and without Striga seeds were kept as the negative and positive control. Each compound was applied twice in a week up to four weeks. The rice plants were grown under normal growth condition (30° C., 70% RH) for eight weeks. The number of emerged Striga plants in each pot were counted.

COc1ccc(Oc2cccc(/C=C/C(C)=O)c2)cc1 [MZ3, (E)-4-(3-(4-methoxyphenoxy)phenyl)but-3-en-2-one]
lowering of Striga seed germinating activity of collected exudates (Striga hermonthica seeds; exudates of Pi-starved WT rice seedlings exposed to 5 μM for 6 hours (FIG. 10)): around 40% | decrease of Striga seed germination rate (Striga hermonthica seeds; exudates of rice seedlings treated with 5 μM compound, Pi starvation (FIG. 2)): ~45% | CCD7 and CO transcript level compared with Zaxinone ([1]; wild-type rice roots, Pi starvation, 6 h (FIGS. 12A-12D)): significantly lower | transcript levels of SL biosynthesis enzymes D27, CCD7, CCD8 and CO ([1]; wild-type rice seedlings, Pi-starvation, 6 h): strongest inhibition; also recorded: pronounced decrease | root length of wild-type plants relative to zaxinone [2]: more active than zaxinone | root surface area and root numbers of WT plants compared with zaxinone treatment (wild-type rice plants): increased more | plant height, branch, flowers and fruit numbers compared to zaxinone [3]: strongly increased | reduction of the number of emerging Striga plants compared to the untreated control (Striga hermonthica): 71%
